Test results from US10363284B2, “β-hairpin peptidomimetics” (POLYPHOR AG, priority 2012, dated 2019).
Like-named read-outs stand apart in the source and are kept apart here. Positions of bridges follow the written chain, without caps; N, C: chain ends. Non-standard residues stand in square brackets, D forms with d. Residues, ends and D or L forms follow the SMILES beside them. dLys(iPr) = CC(C)NCCCC[C@@H](N)C(=O)O; Lys(iPr) = CC(C)NCCCC[C@H](N)C(=O)O; Orn(iPr) = CC(C)NCCC[C@H](N)C(=O)O; Ac3c = NC1(C(=O)O)CC1

Tests used:
[1] = tested on: human red blood cells (hRBC); format: cell-based; conditions: red cells of human, 1 h
Method: The peptides were tested for their hemolytic activity against human red blood cells (hRBC). Fresh hRBC were washed four times with phosphate buffered saline (PBS) and centrifuged for 10 min at 3000×g. Compounds (100 μM) were incubated with 20% hRBC (v/v) for 1 h at 37° C. and shaking at 300 rpm. The final erythrocyte concentration was approximately 0.9×10^9 cells/mL. A value of 0% and 100% cell lysis, respectively, was determined by incubation of hRBC in the presence of PBS containing 0.001% acetic acid and 2.5% Triton X-100 in H2O, respectively. The samples were centrifuged, the supernatants were 8-fold diluted in PBS buffer and the optical densities (OD) were measured at 540 nm. The 100% lyses value (OD540H2O) gave an OD540 of approximately 0.5-1.0.
Percent hemolysis was calculated as follows: (OD540peptide/OD540H2O)×100%.

[2] = Drug loading calculations via maintenance dose rate; conditions: CLiv-mouse scaled by 0.127 (GFR human/mouse)
Method: The drug load for an implant comprising a peptide of the invention was calculated following the basic principles in pharmacokinetics (see also J. Gabrielsson, D. Weiner, “Pharmacokinetics and Pharmaco-dynamics Data Analysis: Concepts and Applications”, 4th edition, Swedish Pharmaceutical Press, Stockholm, Sweden, 2006) whereby the maintenance dose rate (rate of infusion, Rin) can be defined as the rate at which a drug is to be administered to reach a steady state of a certain dose in the plasma. The maintenance dose rate can be expressed using the correlation Rin [g/(h*kg)]=CLiv, [L/(h*kg)]×Css,eff [g/L], wherein CLiv, is the clearance (i.v.—admin.) and Css,eff the effective concentration of the drug in the plasma at steady state considering an efficacy margin A: Css,eff[g/L]=A×(IC50/fu)×MW [(Mol/L)*(g/Mol)]. Therefore, the total amount of a drug loaded into an implant providing for a constant effective concentration of that drug in the plasma for a certain period of time in a subject of a certain body weight can be calculated by applying the following correlation: Drugload [g/subject]=Rin [g/(h*kg)]×duration [h]×BW [kg/subject].
Further pre-conditions are an efficacy margin of A=3, a study duration of 672 h (28 days) and a body weight of a human subject of 70 kg. […]

[3] = Plasma stability, human plasma; format: in vitro ADME; conditions: for human pl. T1/2: 37° C.; for remaining at 24 h, 10 μM: 1440 min, read-out: human pl. cpd left at 1440 min
Method: The stability of the peptides in human and mouse plasma was determined by applying the following method: 346.5 μL/deep well of freshly thawed human plasma (Basler Blutspende-dienst) and mouse plasma (Harlan Sera-Lab, UK), respectively, were spiked with 3.5 μL/well of compound dissolved in DMSO/H2O (90/10 [v/v], 1 mM, triplicate) and incubated at 37° C. At t=0, 15, 30, 60, 120, 240 and 1440 min aliquots of 50 μL were transferred to filtration plate wells containing 150 μL/well of 2% formic acid in acetonitrile. Following shaking for 2 min the occurred suspensions were filtrated by vacuum. 100 μL of each filtrate were transferred to a propylene microtiter plate and dried under N2. The residual solids were reconstituted by adding 100 μL/well of water/acetonitrile, 95/5 (v/v)+0.2% formic acid and analyzed by LC/MS as follows: Column: Waters, XBridge C18, mobile phases: (A) water+0.1% formic acid and (B) acetonitrile/water, 95/5 (v/v)+0.1% formic acid, gradient: 5%-100% (B) in 1.8 minutes, electrospray ionization, MRM detection (triple quadrupole). The peak areas were determined and triplicate values are averaged. The stability is expressed in percent of the initial value at t=0. (tx/t0×100). By using the TREND function of EXCEL (Microsoft Office 2003) T1/2 were determined.

Plasma protein binding = format: in vitro ADME; conditions: human
Method: 495 μL aliquots of human plasma (Basler Blutspendedienst) as well as 495 μL aliquots of PBS were placed in individual deepwells of a polypropylene plate (Greiner) and spiked each with 5 μL of 1 mM solutions of peptides in 90% DMSO. After shaking the plate for 2 min at 600 rpm 150 μL aliquots of the plasma/peptide mixtures were transferred in triplicates to the polypropylene filter plate (10 kDa, Millipore) whereas 150 μL aliquots of the PBS/peptide mixtures were transferred either to the individual wells of the filter plate (filtered controls) or directly into the individual wells of the receiving plate (Greiner) (non-filtered controls). The plate sandwich consisting of filter and receiving plate was incubated for 1 h at 37° C. and subsequently centrifuged at 3220 g for 2 h at 15° C. The filtrates in the receiving plate were analysed by LC/MS as follows: Column: Waters, XBridge C18, mobile phases: (A) water+0.1% formic acid and (B) acetonitrile/water, 95/5 (v/v)+0.1% formic acid, gradient: 5%-100% (B) in 1.8 minutes, electrospray ionization, MRM detection (triple quadrupole). The peak areas were determined and triplicate values are averaged. The binding is expressed in percent of the filtered and non-filtered controls by 100−(100×T1h/Tctr). Finally the average of these values is calculated.

[4] = read-out: Plasma protein binding (converted)

| Compound | Hemolysis at 100 μM [1] | CLiv, human (allometric scaled) [2] | human pl. T1/2 [3] | remaining at 24 h, 10 μM [3] | fraction unbound at 1 h, 10 μM (Plasma protein binding; read-out: Fraction unbound, fu) | fraction unbound at 1 h, 10 μM (Plasma protein binding; [4]) |
| --- | --- | --- | --- | --- | --- | --- |
| CC(C)NCCCC[C@@H]1NC(=O)[C@H](CCC(N)=O)NC(=O)[C@H](Cc2ccc(O)cc2)NC(=O)[C@@H]2CSSC[C@H](NC(=O)[C@H](Cc3ccc(O)cc3)NC(=O)[C@H](Cc3c[nH]cn3)NC(=O)[C@H](Cc3ccc(O)cc3)NC(=O)[C@@H]3CCCN3C(=O)[C@@H](CCCCNC(C)C)NC1=O)C(=O)N[C@@H](CO)C(=O)N[C@@H](C)C(=O)N1CCC[C@@H]1C(=O)N[C@@H](CCCNC(C)C)C(=O)N[C@@H](CCCNC(=N)N)C(=O)N[C@@H](Cc1ccc(O)cc1)C(=O)N2 [Ex. 1, cyclo(-Tyr^1-His^2-Tyr^3-Cys^4-Ser^5-Ala^6-^DPro^7-Orn(iPr)^8-Arg^9-Tyr^10-Cys^11-Tyr^12-Gln^13-Lys(iPr)^14-^DLys(iPr)^15-Pro^16-), disulfide bond between Cys^4 and Cys^11] (cyclo(A[dP][Orn(iPr)]RYCYQ[Lys(iPr)][dLys(iPr)]PYHYCS); disulfide 6-15) | 1.0% | 2.08 mL/min/kg | 24 h | 100% | 0.45 | 0.45 |
| CC(C)NCCCC[C@@H]1NC(=O)[C@H](CCC(N)=O)NC(=O)[C@H](Cc2ccc(O)cc2)NC(=O)[C@@H]2CSSC[C@H](NC(=O)[C@H](Cc3ccc(O)cc3)NC(=O)[C@H](Cc3c[nH]cn3)NC(=O)[C@H](Cc3ccc(O)cc3)NC(=O)[C@@H]3CCCN3C(=O)[C@H]3CCCN3C1=O)C(=O)N[C@@H](CO)C(=O)NC1(CC1)C(=O)N1CCC[C@@H]1C(=O)N[C@@H](CCCNC(C)C)C(=O)N[C@@H](CCCNC(=N)N)C(=O)N[C@@H](Cc1ccc(O)cc1)C(=O)N2 [Ex. 2, cyclo(-Tyr^1-His^2-Tyr^3-Cys^4-Ser^5-Acc^6-^DPro^7-Orn(iPr)^8-Arg^9-Tyr^10-Cys^11-Tyr^12-Gln^13-Lys(iPr)^14-^DPro^15-Pro^16-), disulfide bond between Cys^4 and Cys^11] (cyclo(YHYCS[Ac3c][dP][Orn(iPr)]RYCYQ[Lys(iPr)][dP]P); disulfide 4-11) | 1.0% | 1.45 mL/min/kg | 24 h | 87% | 0.57 | 0.57 |
